Data as given in the NIST ThermoML archive (doi:10.1021/acs.jced.6b00178).
Numbers after ± are expanded uncertainties.

Assay: xn = mol fraction of the nth substance listed
Settings: 100 kPa, Liquid; for viscosity: Concentric cylinders viscometry; for mass density: Vibrating tube method

CCCCn1cc[n+](C)c1.O=S(=O)([O-])C(F)(F)F [1-butyl-3-methylimidazolium trifluoromethanesulfonate] + CCCC[n+]1ccn(C)c1.O=S(=O)([N-]S(=O)(=O)C(F)(F)F)C(F)(F)F
viscosity (283.15 K, x2 = 0): 225.61 ± 12 mPa·s | viscosity (283.15 K, x2 = 0.25): 154.7 ± 8.1 mPa·s | viscosity (283.15 K, x2 = 0.5): 145 ± 7.5 mPa·s | viscosity (283.15 K, x2 = 0.746): 145.79 ± 7.6 mPa·s | mass density (283.15 K, x2 = 0): 1308.4 ± 0.7 kg/m3 | mass density (283.15 K, x2 = 0.25): 1352.7 ± 0.7 kg/m3 | mass density (283.15 K, x2 = 0.5): 1389 ± 0.7 kg/m3 | mass density (283.15 K, x2 = 0.746): 1421.8 ± 0.7 kg/m3 | viscosity (288.15 K, x2 = 0): 168.05 ± 8.8 mPa·s | viscosity (288.15 K, x2 = 0.25): 117.06 ± 6 mPa·s | viscosity (288.15 K, x2 = 0.5): 109.34 ± 5.6 mPa·s | viscosity (288.15 K, x2 = 0.746): 111.5 ± 5.7 mPa·s | mass density (288.15 K, x2 = 0): 1304.3 ± 0.7 kg/m3 | mass density (288.15 K, x2 = 0.25): 1348.3 ± 0.7 kg/m3 | mass density (288.15 K, x2 = 0.5): 1384.4 ± 0.7 kg/m3 | mass density (288.15 K, x2 = 0.746): 1417.1 ± 0.7 kg/m3 | viscosity (293.15 K, x2 = 0): 128.51 ± 6.6 mPa·s | viscosity (293.15 K, x2 = 0.25): 90.69 ± 4.6 mPa·s | viscosity (293.15 K, x2 = 0.5): 84.53 ± 4.3 mPa·s | viscosity (293.15 K, x2 = 0.746): 87.3 ± 4.4 mPa·s | mass density (293.15 K, x2 = 0): 1300.3 ± 0.7 kg/m3 | mass density (293.15 K, x2 = 0.25): 1344 ± 0.7 kg/m3 | mass density (293.15 K, x2 = 0.5): 1379.9 ± 0.7 kg/m3 | mass density (293.15 K, x2 = 0.746): 1412.4 ± 0.7 kg/m3 | viscosity (298.15 K, x2 = 0): 99.14 ± 5.1 mPa·s | viscosity (298.15 K, x2 = 0.25): 71.42 ± 3.6 mPa·s | viscosity (298.15 K, x2 = 0.5): 66.62 ± 3.4 mPa·s | viscosity (298.15 K, x2 = 0.746): 68.68 ± 3.5 mPa·s | mass density (298.15 K, x2 = 0): 1296.3 ± 0.7 kg/m3 | mass density (298.15 K, x2 = 0.25): 1339.8 ± 0.7 kg/m3 | mass density (298.15 K, x2 = 0.5): 1375.5 ± 0.7 kg/m3 | mass density (298.15 K, x2 = 0.746): 1407.8 ± 0.7 kg/m3 | viscosity (303.15 K, x2 = 0): 78.26 ± 4 mPa·s | viscosity (303.15 K, x2 = 0.25): 57.29 ± 2.9 mPa·s | viscosity (303.15 K, x2 = 0.5): 53.39 ± 2.7 mPa·s | viscosity (303.15 K, x2 = 0.746): 55.86 ± 2.8 mPa·s | mass density (303.15 K, x2 = 0): 1292.3 ± 0.7 kg/m3 | mass density (303.15 K, x2 = 0.25): 1335.5 ± 0.7 kg/m3 | mass density (303.15 K, x2 = 0.5): 1371 ± 0.7 kg/m3 | mass density (303.15 K, x2 = 0.746): 1403.2 ± 0.7 kg/m3 | viscosity (308.15 K, x2 = 0): 62.76 ± 3.2 mPa·s | viscosity (308.15 K, x2 = 0.25): 46.66 ± 2.3 mPa·s | viscosity (308.15 K, x2 = 0.5): 43.56 ± 2.2 mPa·s | viscosity (308.15 K, x2 = 0.746): 45.8 ± 2.3 mPa·s | mass density (308.15 K, x2 = 0): 1288.4 ± 0.7 kg/m3 | mass density (308.15 K, x2 = 0.25): 1331.3 ± 0.7 kg/m3 | mass density (308.15 K, x2 = 0.5): 1366.6 ± 0.7 kg/m3 | mass density (308.15 K, x2 = 0.746): 1398.6 ± 0.7 kg/m3 | viscosity (313.15 K, x2 = 0): 51.33 ± 2.6 mPa·s | viscosity (313.15 K, x2 = 0.25): 38.52 ± 1.9 mPa·s | viscosity (313.15 K, x2 = 0.5): 35.96 ± 1.8 mPa·s | viscosity (313.15 K, x2 = 0.746): 38.1 ± 1.9 mPa·s | mass density (313.15 K, x2 = 0): 1284.5 ± 0.7 kg/m3 | mass density (313.15 K, x2 = 0.25): 1327 ± 0.7 kg/m3 | mass density (313.15 K, x2 = 0.5): 1362.2 ± 0.7 kg/m3 | mass density (313.15 K, x2 = 0.746): 1394 ± 0.7 kg/m3 | viscosity (318.15 K, x2 = 0): 42.1 ± 2.1 mPa·s | viscosity (318.15 K, x2 = 0.25): 32.19 ± 1.6 mPa·s | viscosity (318.15 K, x2 = 0.5): 30.15 ± 1.5 mPa·s | viscosity (318.15 K, x2 = 0.746): 32.2 ± 1.6 mPa·s | mass density (318.15 K, x2 = 0): 1280.6 ± 0.7 kg/m3 | mass density (318.15 K, x2 = 0.25): 1322.8 ± 0.7 kg/m3 | mass density (318.15 K, x2 = 0.5): 1357.8 ± 0.7 kg/m3 | mass density (318.15 K, x2 = 0.746): 1389.4 ± 0.7 kg/m3 | viscosity (323.15 K, x2 = 0): 35.13 ± 1.8 mPa·s | viscosity (323.15 K, x2 = 0.25): 27.21 ± 1.4 mPa·s | viscosity (323.15 K, x2 = 0.5): 25.43 ± 1.3 mPa·s | viscosity (323.15 K, x2 = 0.746): 27.44 ± 1.4 mPa·s | mass density (323.15 K, x2 = 0): 1276.7 ± 0.7 kg/m3 | mass density (323.15 K, x2 = 0.25): 1318.7 ± 0.7 kg/m3 | mass density (323.15 K, x2 = 0.5): 1353.5 ± 0.7 kg/m3 | mass density (323.15 K, x2 = 0.746): 1384.9 ± 0.7 kg/m3 | viscosity (328.15 K, x2 = 0): 29.63 ± 1.5 mPa·s | viscosity (328.15 K, x2 = 0.25): 23.24 ± 1.2 mPa·s | viscosity (328.15 K, x2 = 0.5): 21.66 ± 1.1 mPa·s | viscosity (328.15 K, x2 = 0.746): 23.47 ± 1.2 mPa·s | mass density (328.15 K, x2 = 0): 1272.8 ± 0.7 kg/m3 | mass density (328.15 K, x2 = 0.25): 1314.5 ± 0.7 kg/m3 | mass density (328.15 K, x2 = 0.5): 1349.2 ± 0.7 kg/m3 | mass density (328.15 K, x2 = 0.746): 1380.4 ± 0.7 kg/m3 | viscosity (333.15 K, x2 = 0): 25.5 ± 1.3 mPa·s | viscosity (333.15 K, x2 = 0.25): 20.06 ± 1 mPa·s | viscosity (333.15 K, x2 = 0.5): 18.55 ± 0.93 mPa·s | viscosity (333.15 K, x2 = 0.746): 20.27 ± 1 mPa·s | mass density (333.15 K, x2 = 0): 1268.9 ± 0.7 kg/m3 | mass density (333.15 K, x2 = 0.25): 1310.4 ± 0.7 kg/m3 | mass density (333.15 K, x2 = 0.5): 1344.9 ± 0.7 kg/m3 | mass density (333.15 K, x2 = 0.746): 1376 ± 0.7 kg/m3 | viscosity (338.15 K, x2 = 0): 21.72 ± 1.1 mPa·s | viscosity (338.15 K, x2 = 0.25): 17.4 ± 0.88 mPa·s | viscosity (338.15 K, x2 = 0.5): 16.08 ± 0.81 mPa·s | viscosity (338.15 K, x2 = 0.746): 17.6 ± 0.89 mPa·s | mass density (338.15 K, x2 = 0): 1265.1 ± 0.7 kg/m3 | mass density (338.15 K, x2 = 0.25): 1306.2 ± 0.7 kg/m3 | mass density (338.15 K, x2 = 0.5): 1340.6 ± 0.7 kg/m3 | mass density (338.15 K, x2 = 0.746): 1371.5 ± 0.7 kg/m3 | viscosity (343.15 K, x2 = 0): 18.84 ± 0.95 mPa·s | viscosity (343.15 K, x2 = 0.25): 15.23 ± 0.77 mPa·s | viscosity (343.15 K, x2 = 0.5): 14.13 ± 0.71 mPa·s | viscosity (343.15 K, x2 = 0.746): 15.46 ± 0.78 mPa·s | mass density (343.15 K, x2 = 0): 1261.3 ± 0.6 kg/m3 | mass density (343.15 K, x2 = 0.25): 1302.2 ± 0.7 kg/m3 | mass density (343.15 K, x2 = 0.5): 1336.3 ± 0.7 kg/m3 | mass density (343.15 K, x2 = 0.746): 1367.1 ± 0.7 kg/m3 | viscosity (348.15 K, x2 = 0): 16.47 ± 0.83 mPa·s | viscosity (348.15 K, x2 = 0.25): 13.43 ± 0.68 mPa·s | viscosity (348.15 K, x2 = 0.5): 12.54 ± 0.63 mPa·s | viscosity (348.15 K, x2 = 0.746): 13.66 ± 0.69 mPa·s | mass density (348.15 K, x2 = 0): 1257.5 ± 0.6 kg/m3 | mass density (348.15 K, x2 = 0.25): 1298.1 ± 0.7 kg/m3 | mass density (348.15 K, x2 = 0.5): 1332 ± 0.7 kg/m3 | mass density (348.15 K, x2 = 0.746): 1362.6 ± 0.7 kg/m3 | viscosity (353.15 K, x2 = 0): 14.83 ± 0.75 mPa·s | viscosity (353.15 K, x2 = 0.25): 11.94 ± 0.6 mPa·s | viscosity (353.15 K, x2 = 0.5): 11.18 ± 0.56 mPa·s | viscosity (353.15 K, x2 = 0.746): 12.23 ± 0.62 mPa·s | mass density (353.15 K, x2 = 0): 1253.7 ± 0.6 kg/m3 | mass density (353.15 K, x2 = 0.25): 1294 ± 0.7 kg/m3 | mass density (353.15 K, x2 = 0.5): 1327.8 ± 0.7 kg/m3 | mass density (353.15 K, x2 = 0.746): 1358.2 ± 0.7 kg/m3 | viscosity (358.15 K, x2 = 0): 12.86 ± 0.65 mPa·s | viscosity (358.15 K, x2 = 0.25): 10.63 ± 0.54 mPa·s | viscosity (358.15 K, x2 = 0.5): 9.981 ± 0.5 mPa·s | viscosity (358.15 K, x2 = 0.746): 10.93 ± 0.55 mPa·s | mass density (358.15 K, x2 = 0): 1249.9 ± 0.6 kg/m3 | mass density (358.15 K, x2 = 0.25): 1290 ± 0.7 kg/m3 | mass density (358.15 K, x2 = 0.5): 1323.5 ± 0.7 kg/m3 | mass density (358.15 K, x2 = 0.746): 1353.8 ± 0.7 kg/m3 | viscosity (363.15 K, x2 = 0): 11.48 ± 0.58 mPa·s | viscosity (363.15 K, x2 = 0.25): 9.541 ± 0.48 mPa·s | viscosity (363.15 K, x2 = 0.5): 8.973 ± 0.45 mPa·s | viscosity (363.15 K, x2 = 0.746): 9.909 ± 0.5 mPa·s | mass density (363.15 K, x2 = 0): 1246.2 ± 0.6 kg/m3 | mass density (363.15 K, x2 = 0.25): 1286.1 ± 0.7 kg/m3 | mass density (363.15 K, x2 = 0.5): 1319.3 ± 0.7 kg/m3 | mass density (363.15 K, x2 = 0.746): 1349.5 ± 0.7 kg/m3
